The text below walks through data of ChEMBL document CHEMBL2429822, “Imaging probes of tau pathology” (ACS Med Chem Lett, 2013).

Activity calls are given as the source filed them. The rule behind the calls is not given here.

The subject of data set [1] is Brain. The experiment in a line: Biodistribution in C57B1/6 mouse brain at 2 MBq, iv after 60 mins by gamma-counting analysis. Type of data set: ADME, organism-based. The following applies: in vivo, 1 h.
The test system of data set [2] is Brain. The experiment in a line: Biodistribution in C57B1/6 mouse brain at 2 MBq, iv after 30 mins by gamma-counting analysis. Type of data set: ADME, organism-based. The following applies: in vivo, 0.5 h.
Data set [3] deals with Brain. Briefly: Ratio of clearance in C57B1/6 mouse brain at 2 MBq after 2 mins to clearance in C57B1/6 mouse brain at 2 MBq after 30 mins. Type of data set: ADME, tissue-based. Particulars: in vivo.
Data set [4] relates to Brain. The experiment in a line: Biodistribution in C57B1/6 mouse brain at 2 MBq, iv after 10 mins by gamma-counting analysis. It counts as ADME, organism-based. Particulars: in vivo.
In data set [5] the test system is Brain. The experiment in a line: Biodistribution in C57B1/6 mouse brain at 2 MBq, iv after 2 mins by gamma-counting analysis. It counts as ADME, organism-based. The following applies: in vivo.
The target of data set [6] is Microtubule-associated protein tau (Homo sapiens) (UniProt P10636). Briefly: Binding affinity to human tau associated NFTs at 100 uM by fluorescence microscopy.
Chain of Microtubule-associated protein tau (Homo sapiens) (P10636 whole entry): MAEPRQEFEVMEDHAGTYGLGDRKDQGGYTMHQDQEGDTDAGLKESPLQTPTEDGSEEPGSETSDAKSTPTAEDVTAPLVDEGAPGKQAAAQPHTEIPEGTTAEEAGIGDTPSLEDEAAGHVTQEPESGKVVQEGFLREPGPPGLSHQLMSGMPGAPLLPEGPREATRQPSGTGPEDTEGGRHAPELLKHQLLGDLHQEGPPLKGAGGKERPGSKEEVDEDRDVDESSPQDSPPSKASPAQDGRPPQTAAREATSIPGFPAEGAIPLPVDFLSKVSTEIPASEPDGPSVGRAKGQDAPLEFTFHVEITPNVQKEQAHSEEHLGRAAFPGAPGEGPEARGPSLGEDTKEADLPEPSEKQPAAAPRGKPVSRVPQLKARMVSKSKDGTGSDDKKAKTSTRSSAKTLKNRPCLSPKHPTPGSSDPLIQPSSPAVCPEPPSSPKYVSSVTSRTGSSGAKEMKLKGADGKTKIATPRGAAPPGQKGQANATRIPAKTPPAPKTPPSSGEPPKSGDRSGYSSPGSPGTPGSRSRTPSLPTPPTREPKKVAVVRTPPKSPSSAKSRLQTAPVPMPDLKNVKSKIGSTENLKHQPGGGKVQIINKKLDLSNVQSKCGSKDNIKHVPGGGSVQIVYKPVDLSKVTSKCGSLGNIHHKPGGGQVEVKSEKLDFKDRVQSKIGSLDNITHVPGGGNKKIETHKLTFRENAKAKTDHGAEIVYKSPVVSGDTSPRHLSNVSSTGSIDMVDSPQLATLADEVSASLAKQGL
Data set [7] concerns the target Amyloid-beta precursor protein (Homo sapiens) (UniProt P05067). The experiment in a line: Binding affinity to human amyloid-beta plaques at 100 uM by fluorescence microscopy.
Data set [8] shares this target. The experiment in a line: Binding affinity to human amyloid-beta plaques at 10 uM by fluorescence microscopy.
In data set [9] the target is Microtubule-associated protein tau (Homo sapiens) (UniProt P10636). Briefly: Binding affinity to human tau associated NFTs at 10 uM by fluorescence microscopy.
Data set [10] has the same target. The experiment in a line: Binding affinity to human tau associated NFTs at 1 uM by fluorescence microscopy.
The target of data set [11] is Amyloid-beta precursor protein (Homo sapiens) (UniProt P05067). The experiment in a line: Binding affinity to human amyloid-beta plaques at 1 uM by fluorescence microscopy.
Chain of Amyloid-beta precursor protein (Homo sapiens) (P05067 whole entry): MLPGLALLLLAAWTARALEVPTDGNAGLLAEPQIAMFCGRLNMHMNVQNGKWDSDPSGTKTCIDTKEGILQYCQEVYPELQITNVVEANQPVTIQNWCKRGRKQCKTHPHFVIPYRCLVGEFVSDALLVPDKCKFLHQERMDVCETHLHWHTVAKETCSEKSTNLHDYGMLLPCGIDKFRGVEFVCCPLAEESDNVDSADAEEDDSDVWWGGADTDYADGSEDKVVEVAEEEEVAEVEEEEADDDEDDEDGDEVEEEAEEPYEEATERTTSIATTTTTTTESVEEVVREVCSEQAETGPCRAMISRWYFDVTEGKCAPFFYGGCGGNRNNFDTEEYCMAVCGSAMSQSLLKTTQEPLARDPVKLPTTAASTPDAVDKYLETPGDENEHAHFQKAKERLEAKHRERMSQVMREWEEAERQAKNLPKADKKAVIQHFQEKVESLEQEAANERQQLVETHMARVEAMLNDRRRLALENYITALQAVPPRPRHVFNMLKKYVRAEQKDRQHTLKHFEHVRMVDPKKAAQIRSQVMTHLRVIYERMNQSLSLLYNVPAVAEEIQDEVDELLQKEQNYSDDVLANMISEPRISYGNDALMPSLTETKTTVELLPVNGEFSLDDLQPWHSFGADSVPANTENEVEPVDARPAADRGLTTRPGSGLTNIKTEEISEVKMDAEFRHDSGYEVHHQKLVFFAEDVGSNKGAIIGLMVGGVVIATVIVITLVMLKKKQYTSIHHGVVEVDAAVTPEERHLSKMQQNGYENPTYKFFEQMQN
The subject of data set [12] is Brain. The experiment in a line: Biodistribution in Wistar rat brain at 50 ug, iv after 30 mins by […] analysis. It counts as ADME, organism-based. Particulars: in vivo, 0.5 h.
For data set [13], the system named is Brain. Briefly: Biodistribution in Wistar rat brain at 50 ug, iv after 10 mins by […] analysis. It counts as ADME, organism-based. Particulars: in vivo.
Data set [14] has as its system Brain. Briefly: Ratio of clearance in Wistar rat brain at 50 ug after 2 mins to clearance in Wistar rat brain at 50 ug after 30 mins. Type of data set: ADME, tissue-based. Particulars: in vivo.
For data set [15], the system named is Brain. The experiment in a line: Biodistribution in Wistar rat brain at 50 ug, iv after 60 mins by […] analysis. It counts as ADME, organism-based. The following applies: in vivo, 1 h.
Data set [16] relates to Brain. Briefly: Biodistribution in Wistar rat brain at 50 ug, iv after 2 mins by […] analysis. Particulars: in vivo. It counts as ADME, organism-based.
[17] abbreviates: tested as the 11C-labelled form.

Take `CC(C)NC(=O)c1nn(-c2ccc(OCC[18F])cc2)c(=O)c2c(N)scc12`: the Drug uptake with Brain [1] is 2.35%; with Brain [2], 2.83%; with Brain [4] it was 3.26%; with Brain [5] it was 6.5%. Also, the Ratio with Brain [3] came out at 2.3.
For the compound `CC(C)NC(=O)c1nn(-c2ccc(OCCCF)cc2)c(=O)c2c(N)scc12`, the outcome in [6] and in [7] was inactive.
Consider `CC(C)NC(=O)c1nn(-c2ccc(OCCC[18F])cc2)c(=O)c2c(N)scc12`, for which the Drug uptake in the data set with Brain [1] came out at 1.51%; with Brain [2], 3.46%; in the data set on Brain [4], 5.77%; with Brain [5], 9.84%. Moreover, in the data set with Brain [3], the Ratio is 2.8.
On to `CC(C)NC(=O)c1nn(-c2ccc(F)cc2)c(=O)c2c(N)scc12`, for which the outcome in data set [8], in [9], in data set [10] and in data set [11] was inactive. Moreover, the result in data set [6] and in [7] was Active.
As for `CC(C)NC(=O)c1nn(-c2ccc(OCC(O)CF)cc2)c(=O)c2c(N)scc12` (configuration not stated), the result in data set [6] and in data set [7] was inactive.
Consider `CC(C)NC(=O)c1nn(-c2ccc([N+](=O)[O-])cc2)c(=O)c2c(N)scc12`, for which the outcome in data set [8] and in data set [10] was inactive. Moreover, the outcome in data set [9], in data set [6] and in data set [7] was Active.
With `CC(C)NC(=O)c1nn(-c2ccc(OCCF)cc2)c(=O)c2c(N)scc12`, the Drug uptake in the data set on Brain [12] was 0.021%; in the data set on Brain [13], 0.081%; in the data set on Brain [15], 0.011%; with Brain [16] it was 0.28%. For the same compound, the outcome in [8], in data set [9], in data set [10], in [6] and in [7] was Active. In addition, in the data set with Brain [14], the Ratio is reported as 13.3. For the same compound, the result in data set [11] was inactive.
For the compound `CC(=C(C#N)C#N)c1ccc2cc(N(C)CCF)ccc2c1`, the result in data set [8], in data set [9], in data set [10], in data set [6], in data set [7] and in data set [11] was Active.
On to `CNc1ccc(-c2nc3ccc(O)cc3s2)cc1`, for which the outcome in data set [8] (setting [17]), in [9] (setting [17]), in [6] (setting [17]), in [7] (setting [17]) and in [11] (setting [17]) was Active. Also, in data set [10] (setting [17]), the outcome was inactive.
`CC(C)NC(=O)c1nn(-c2ccc(OCCF)cc2)c(=O)c2c(NC(=O)OC(C)(C)C)scc12`: the result in data set [6] and in data set [7] was inactive.
For the compound `CC(C)(C)OC(=O)c1nn(-c2ccc(OCCF)cc2)c(=O)c2c(N)scc12`, the result in data set [6] and in data set [7] was inactive.
